Results reported in the kinase profiling compilation of Christmann-Franck et al. (2016).

Columns and labels:
Experiment in all cases: radiometric filter-binding kinase assay, Kinase HotSpot
Details in all cases: compound 0.5 µM; ATP 10 µM
[1] = biological target: SRPK1 (human) (UniProt Q96SB4)
[2] = biological target: BLK (human) (UniProt P51451)
[3] = biological target: NEK3 (human) (UniProt P51956)
[4] = biological target: DYRK4 (human) (UniProt Q9NR20)
[5] = biological target: BTK (human) (UniProt Q06187)
[6] = biological target: AURKC (human) (UniProt Q9UQB9)
[7] = biological target: TAOK3 (human) (UniProt Q9H2K8)
Chain of TAOK3 (human) (Q9H2K8 whole entry, looked up): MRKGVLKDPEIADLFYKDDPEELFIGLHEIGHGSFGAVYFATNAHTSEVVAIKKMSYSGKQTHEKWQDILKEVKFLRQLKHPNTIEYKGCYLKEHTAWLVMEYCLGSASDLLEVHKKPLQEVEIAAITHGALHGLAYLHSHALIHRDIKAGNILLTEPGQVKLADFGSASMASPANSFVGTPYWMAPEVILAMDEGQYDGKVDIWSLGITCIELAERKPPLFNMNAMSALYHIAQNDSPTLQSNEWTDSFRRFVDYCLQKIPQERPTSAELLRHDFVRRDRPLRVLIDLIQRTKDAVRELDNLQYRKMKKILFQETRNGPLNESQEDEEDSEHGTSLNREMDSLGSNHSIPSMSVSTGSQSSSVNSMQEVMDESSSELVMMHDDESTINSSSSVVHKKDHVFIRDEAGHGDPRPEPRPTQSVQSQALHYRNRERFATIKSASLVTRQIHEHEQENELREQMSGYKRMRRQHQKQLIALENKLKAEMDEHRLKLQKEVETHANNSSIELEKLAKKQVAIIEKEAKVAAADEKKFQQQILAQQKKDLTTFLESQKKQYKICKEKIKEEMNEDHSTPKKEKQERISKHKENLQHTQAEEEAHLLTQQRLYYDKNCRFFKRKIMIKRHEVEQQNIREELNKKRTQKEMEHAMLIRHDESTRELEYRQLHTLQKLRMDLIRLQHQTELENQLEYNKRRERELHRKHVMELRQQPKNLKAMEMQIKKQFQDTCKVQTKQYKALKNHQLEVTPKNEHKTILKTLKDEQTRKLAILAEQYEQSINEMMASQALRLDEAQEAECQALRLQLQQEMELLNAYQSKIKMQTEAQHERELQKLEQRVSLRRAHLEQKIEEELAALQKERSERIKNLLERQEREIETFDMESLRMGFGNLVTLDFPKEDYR

[8] = biological target: FLT1 (human) (UniProt P17948)
[9] = biological target: GRK5 (human) (UniProt P34947)
[10] = biological target: PLK2 (human) (UniProt Q9NYY3)
Chain of PLK2 (human) (Q9NYY3 whole entry, looked up): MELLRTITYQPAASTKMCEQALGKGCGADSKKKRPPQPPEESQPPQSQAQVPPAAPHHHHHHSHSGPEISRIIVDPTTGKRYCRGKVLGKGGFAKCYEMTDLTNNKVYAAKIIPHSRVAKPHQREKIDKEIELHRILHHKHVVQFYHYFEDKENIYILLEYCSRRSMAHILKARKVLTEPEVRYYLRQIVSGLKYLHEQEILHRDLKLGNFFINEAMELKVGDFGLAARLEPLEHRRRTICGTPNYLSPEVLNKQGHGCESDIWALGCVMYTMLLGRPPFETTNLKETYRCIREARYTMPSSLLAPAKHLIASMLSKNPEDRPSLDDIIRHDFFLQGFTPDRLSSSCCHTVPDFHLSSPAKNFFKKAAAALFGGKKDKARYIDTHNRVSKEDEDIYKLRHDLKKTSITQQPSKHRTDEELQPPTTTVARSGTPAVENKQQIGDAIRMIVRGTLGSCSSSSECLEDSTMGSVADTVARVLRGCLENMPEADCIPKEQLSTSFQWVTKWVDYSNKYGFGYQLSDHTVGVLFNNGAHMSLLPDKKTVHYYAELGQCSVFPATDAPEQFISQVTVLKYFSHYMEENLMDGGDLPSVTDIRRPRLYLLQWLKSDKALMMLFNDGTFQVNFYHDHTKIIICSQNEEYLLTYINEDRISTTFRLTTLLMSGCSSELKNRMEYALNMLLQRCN

[11] = biological target: CSNK1G2 (human) (UniProt P78368)
[12] = biological target: IGF1R (human) (UniProt P08069)
[13] = biological target: CDK7 CCNH MNAT1 (human) (UniProt P50613+P51948+P51946)
[14] = biological target: INSRR (human) (UniProt P14616)
Chain of INSRR (human) (P14616 whole entry, looked up): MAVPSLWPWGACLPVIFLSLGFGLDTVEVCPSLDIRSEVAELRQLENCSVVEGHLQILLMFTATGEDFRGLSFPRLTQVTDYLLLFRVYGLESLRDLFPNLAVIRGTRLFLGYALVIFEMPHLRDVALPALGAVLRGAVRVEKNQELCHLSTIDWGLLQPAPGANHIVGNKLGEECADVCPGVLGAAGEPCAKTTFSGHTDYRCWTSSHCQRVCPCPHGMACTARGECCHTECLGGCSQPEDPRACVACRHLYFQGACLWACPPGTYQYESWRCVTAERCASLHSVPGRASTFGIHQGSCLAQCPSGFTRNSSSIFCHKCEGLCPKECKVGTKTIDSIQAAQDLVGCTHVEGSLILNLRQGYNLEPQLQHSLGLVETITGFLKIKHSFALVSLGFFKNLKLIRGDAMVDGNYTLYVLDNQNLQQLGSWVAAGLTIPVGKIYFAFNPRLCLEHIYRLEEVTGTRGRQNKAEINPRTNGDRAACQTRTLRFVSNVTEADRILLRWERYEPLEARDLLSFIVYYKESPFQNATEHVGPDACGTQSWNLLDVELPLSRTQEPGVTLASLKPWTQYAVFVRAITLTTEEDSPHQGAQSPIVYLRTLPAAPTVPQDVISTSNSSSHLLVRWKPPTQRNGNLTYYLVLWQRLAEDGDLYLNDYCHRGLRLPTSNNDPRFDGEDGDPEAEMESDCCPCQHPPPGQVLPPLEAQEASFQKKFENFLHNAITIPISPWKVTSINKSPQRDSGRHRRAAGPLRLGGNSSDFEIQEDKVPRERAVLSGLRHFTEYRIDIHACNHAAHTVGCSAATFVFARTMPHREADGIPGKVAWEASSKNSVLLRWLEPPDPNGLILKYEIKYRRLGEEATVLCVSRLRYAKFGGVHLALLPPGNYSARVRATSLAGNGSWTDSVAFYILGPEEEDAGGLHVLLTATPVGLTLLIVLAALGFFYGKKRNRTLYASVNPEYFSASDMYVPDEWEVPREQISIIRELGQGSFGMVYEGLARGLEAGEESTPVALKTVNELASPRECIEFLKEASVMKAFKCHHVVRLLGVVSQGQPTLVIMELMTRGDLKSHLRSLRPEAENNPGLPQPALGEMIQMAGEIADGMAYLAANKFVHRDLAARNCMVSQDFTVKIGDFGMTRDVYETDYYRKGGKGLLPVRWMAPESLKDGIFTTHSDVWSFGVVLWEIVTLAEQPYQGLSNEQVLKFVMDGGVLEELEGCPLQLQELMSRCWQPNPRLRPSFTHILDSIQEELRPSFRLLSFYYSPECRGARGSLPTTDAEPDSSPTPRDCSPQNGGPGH

[15] = biological target: MAPK8 (human) (UniProt P45983)
[16] = biological target: RAF1 (human) (UniProt P04049)
[17] = biological target: MST4 (human) (UniProt Q9P289)
[18] = biological target: KDR (human) (UniProt P35968)
[19] = biological target: DMPK (human) (UniProt Q09013)
[20] = biological target: CDK1 CCNB1 (human) (UniProt P06493+P14635)
[21] = biological target: BMX (human) (UniProt P51813)
[22] = biological target: LTK (human) (UniProt P29376)
[23] = biological target: NEK4 (human) (UniProt P51957)
[24] = biological target: EPHA1 (human) (UniProt P21709)
[25] = biological target: CSNK1G3 (human) (UniProt Q9Y6M4)
[26] = biological target: CDK3 CCNE1 (human) (UniProt Q00526+P24864)
[27] = biological target: FES (human) (UniProt P07332)
[28] = biological target: GRK6 (human) (UniProt P43250)
[29] = biological target: DYRK1A (human) (UniProt Q13627)
[30] = biological target: ABL1 (human) (UniProt P00519)
[31] = biological target: PRKCI (human) (UniProt P41743)
[32] = biological target: ROS1 (human) (UniProt P08922)
[33] = biological target: STK10 (human) (UniProt O94804)
[34] = biological target: MAP3K9 (human) (UniProt P80192)
[35] = biological target: LRRK2 (human) (UniProt Q5S007)
[36] = biological target: PAK6 (human) (UniProt Q9NQU5)
[37] = biological target: RIPK2 (human) (UniProt O43353)
[38] = biological target: RPS6KB1 (human) (UniProt P23443)
[39] = biological target: TSSK1B (human) (UniProt Q9BXA7)
Chain of TSSK1B (human) (Q9BXA7 whole entry, looked up): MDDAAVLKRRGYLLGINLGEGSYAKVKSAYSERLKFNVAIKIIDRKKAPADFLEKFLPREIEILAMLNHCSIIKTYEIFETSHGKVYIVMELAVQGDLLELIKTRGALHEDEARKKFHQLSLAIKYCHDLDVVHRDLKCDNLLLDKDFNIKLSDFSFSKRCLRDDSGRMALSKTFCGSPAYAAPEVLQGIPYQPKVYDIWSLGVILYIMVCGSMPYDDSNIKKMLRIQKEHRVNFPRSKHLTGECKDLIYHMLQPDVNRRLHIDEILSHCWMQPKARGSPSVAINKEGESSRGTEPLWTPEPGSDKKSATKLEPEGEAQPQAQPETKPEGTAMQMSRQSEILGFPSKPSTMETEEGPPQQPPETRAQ

[40] = biological target: PIM2 (human) (UniProt Q9P1W9)
Chain of PIM2 (human) (Q9P1W9 whole entry, looked up): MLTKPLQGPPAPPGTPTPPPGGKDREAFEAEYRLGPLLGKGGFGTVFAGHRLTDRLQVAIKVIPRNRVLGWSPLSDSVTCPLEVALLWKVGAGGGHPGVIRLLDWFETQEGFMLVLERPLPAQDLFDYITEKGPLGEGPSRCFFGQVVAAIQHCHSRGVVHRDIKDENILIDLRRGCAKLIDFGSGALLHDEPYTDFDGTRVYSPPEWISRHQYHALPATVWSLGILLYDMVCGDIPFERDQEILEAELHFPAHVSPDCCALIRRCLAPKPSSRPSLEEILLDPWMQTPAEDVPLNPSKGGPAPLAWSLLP

[41] = biological target: MAP3K5 (human) (UniProt Q99683)
[42] = biological target: MAP4K4 (human) (UniProt O95819)
Chain of MAP4K4 (human) (O95819 whole entry, looked up): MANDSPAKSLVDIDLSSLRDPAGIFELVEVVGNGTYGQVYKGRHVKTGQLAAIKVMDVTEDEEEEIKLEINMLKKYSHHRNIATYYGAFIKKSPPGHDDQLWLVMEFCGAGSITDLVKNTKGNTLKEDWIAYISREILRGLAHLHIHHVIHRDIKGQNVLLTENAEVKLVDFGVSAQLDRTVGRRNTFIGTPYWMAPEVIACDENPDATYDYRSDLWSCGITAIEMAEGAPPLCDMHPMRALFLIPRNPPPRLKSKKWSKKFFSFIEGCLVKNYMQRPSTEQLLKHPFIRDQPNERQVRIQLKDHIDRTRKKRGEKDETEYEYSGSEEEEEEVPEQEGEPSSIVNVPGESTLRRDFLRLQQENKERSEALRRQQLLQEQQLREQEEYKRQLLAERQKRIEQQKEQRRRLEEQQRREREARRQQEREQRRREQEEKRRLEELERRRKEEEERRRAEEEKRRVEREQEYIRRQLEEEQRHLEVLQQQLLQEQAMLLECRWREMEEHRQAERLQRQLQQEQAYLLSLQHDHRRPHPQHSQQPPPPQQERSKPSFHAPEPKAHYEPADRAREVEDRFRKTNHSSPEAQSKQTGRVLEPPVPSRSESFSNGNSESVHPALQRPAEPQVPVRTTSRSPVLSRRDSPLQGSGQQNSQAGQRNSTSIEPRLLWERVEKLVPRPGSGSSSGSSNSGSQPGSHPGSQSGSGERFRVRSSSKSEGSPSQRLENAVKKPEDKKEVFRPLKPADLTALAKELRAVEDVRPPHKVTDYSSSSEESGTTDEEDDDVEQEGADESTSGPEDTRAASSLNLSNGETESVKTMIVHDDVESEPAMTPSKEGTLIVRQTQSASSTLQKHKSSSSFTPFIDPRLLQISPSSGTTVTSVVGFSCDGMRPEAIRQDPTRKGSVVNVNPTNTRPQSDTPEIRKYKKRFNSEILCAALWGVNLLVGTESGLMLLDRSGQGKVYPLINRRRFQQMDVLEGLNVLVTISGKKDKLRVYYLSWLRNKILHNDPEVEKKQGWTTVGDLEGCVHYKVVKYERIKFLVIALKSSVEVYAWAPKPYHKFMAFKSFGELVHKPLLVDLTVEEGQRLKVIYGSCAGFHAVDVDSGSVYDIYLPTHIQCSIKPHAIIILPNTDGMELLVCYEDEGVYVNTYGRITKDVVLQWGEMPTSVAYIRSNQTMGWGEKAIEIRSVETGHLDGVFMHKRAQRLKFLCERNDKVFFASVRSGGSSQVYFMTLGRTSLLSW

Which residual activity [1] does the source give for `O=C1NC(=O)C(c2cn(CCCn3ccnc3)c3ccccc23)=C1Nc1ccccc1` here?
Its residual activity is 99.5%.

And the residual activity [2]?
Its residual activity is 90.9%.

And the residual activity [3]?
Its residual activity is 99.5%.

What about the residual activity [4] of the same molecule?
The residual activity was 89%.

What about the residual activity [5] of the same molecule?
The residual activity was 105%.

And the residual activity [6]?
The residual activity was 89.8%.

What about the residual activity [7] of the same molecule?
The residual activity was 76.5%.

And the residual activity [8]?
Its residual activity is 85.7%.

And the residual activity [9]?
The residual activity was 90.9%.

What about the residual activity [10] of the same molecule?
The residual activity was 101%.

And the residual activity [11]?
Its residual activity is 95.4%.

And the residual activity [12]?
The residual activity was 95.3%.

And the residual activity [13]?
Its residual activity is 96.3%.

What about the residual activity [14] of the same molecule?
Its residual activity is 101%.

And the residual activity [15]?
The residual activity was 99.6%.

What about the residual activity [16] of the same molecule?
Its residual activity is 105%.

What about the residual activity [17] of the same molecule?
Its residual activity is 22.2%.

What about the residual activity [18] of the same molecule?
Its residual activity is 90.2%.

And the residual activity [19]?
Its residual activity is 104%.

And the residual activity [20]?
The residual activity was 84.9%.

And the residual activity [21]?
The residual activity was 90%.

What about the residual activity [22] of the same molecule?
The residual activity was 93.4%.

And the residual activity [23]?
Its residual activity is 94.9%.

And the residual activity [24]?
The residual activity was 101%.

And the residual activity [25]?
The residual activity was 110%.

And the residual activity [26]?
The residual activity was 90.9%.

What about the residual activity [27] of the same molecule?
The residual activity was 103%.

What about the residual activity [28] of the same molecule?
Its residual activity is 98.4%.

What about the residual activity [29] of the same molecule?
The residual activity was 30.8%.

And the residual activity [30]?
Its residual activity is 96.1%.

And the residual activity [31]?
Its residual activity is 90.7%.

And the residual activity [32]?
Its residual activity is 78.7%.

What about the residual activity [33] of the same molecule?
Its residual activity is 11.5%.

What about the residual activity [34] of the same molecule?
The residual activity was 30.6%.

What about the residual activity [35] of the same molecule?
The residual activity was 43.6%.

And the residual activity [36]?
Its residual activity is 105%.

What about the residual activity [37] of the same molecule?
Its residual activity is 84.3%.

What about the residual activity [38] of the same molecule?
Its residual activity is 42.7%.

What about the residual activity [39] of the same molecule?
The residual activity was 102%.

And the residual activity [40]?
Its residual activity is 102%.

What about the residual activity [41] of the same molecule?
The residual activity was 105%.

And the residual activity [42]?
Its residual activity is 64%.
